Source: article PMC11351036, “Biochemical characterization of a SusD-like protein involved in β-1,3-glucan utilization by an uncultured cow rumen Bacteroides” (mSphere, 2024)

Molecular target: T1, 41O1_SusD-like (uncultured Bacteroides sp., UniProt Z9V4V4YR65)
T1 construct: mature protein without predicted lipoprotein signal peptide, N-terminal 6-His tag (pET-28a(+)), E. coli BL21(DE3), codon-optimized gene, 57 kDa, monomer fraction used
T1 sequence (Z9V4V4YR65 22-505): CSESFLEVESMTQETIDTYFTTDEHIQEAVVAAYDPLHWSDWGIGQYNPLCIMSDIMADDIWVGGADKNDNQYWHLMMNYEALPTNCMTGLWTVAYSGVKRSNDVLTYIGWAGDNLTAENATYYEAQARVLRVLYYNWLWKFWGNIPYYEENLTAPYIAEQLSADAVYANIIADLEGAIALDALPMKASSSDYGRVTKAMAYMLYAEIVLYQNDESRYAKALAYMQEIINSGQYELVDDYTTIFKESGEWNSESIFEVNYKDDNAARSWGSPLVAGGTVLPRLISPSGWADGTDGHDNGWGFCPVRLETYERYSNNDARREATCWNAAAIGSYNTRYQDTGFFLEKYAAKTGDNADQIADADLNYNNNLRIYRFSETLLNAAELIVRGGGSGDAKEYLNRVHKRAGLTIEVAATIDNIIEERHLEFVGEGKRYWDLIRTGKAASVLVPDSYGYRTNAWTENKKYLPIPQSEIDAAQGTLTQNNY
Experiment: thermal shift, Tycho NT.[…] intrinsic fluorescence
Type: binding
Conditions: 0.5% (w/v) ligand, 10 µM protein, 20 mM Tris-HCl, 150 mM NaCl, pH 7.4

Row | Compound | ∆T°C
1 | OC[C@H]1O[C@@H](O[C@@H]2[C@@H](O)[C@H](O[C@H]3[C@H](O)[C@@H](CO)OC(O)[C@@H]3O)O[C@H](CO)[C@H]2O)[C@H](O)[C@@H](O)[C@@H]1O (some centres unmarked) [Laminaritriose] | 4.7 °C
2 | OC[C@H]1O[C@@H](O[C@H]2[C@H](O)[C@@H](O)[C@H](O[C@H]3[C@H](O)[C@@H](O)C(O)O[C@@H]3CO)O[C@@H]2CO)[C@H](O)[C@@H](O)[C@@H]1O (some centres unmarked) [Cellotriose] | 1.2 °C
